We go through 10 compounds from ChEMBL document CHEMBL1129891, “Synthesis and cytotoxic activity of alkylidene- and alkyl-substituted camptothecins” (Bioorg Med Chem Lett, 1997).

pIC50: −log10 of the molar value. Where only a bound is given, the exact number is not on record here.

The target in the first test is T1, DNA topoisomerase 1 (Homo sapiens, UniProt P11387).
T1 sequence (P11387 whole entry): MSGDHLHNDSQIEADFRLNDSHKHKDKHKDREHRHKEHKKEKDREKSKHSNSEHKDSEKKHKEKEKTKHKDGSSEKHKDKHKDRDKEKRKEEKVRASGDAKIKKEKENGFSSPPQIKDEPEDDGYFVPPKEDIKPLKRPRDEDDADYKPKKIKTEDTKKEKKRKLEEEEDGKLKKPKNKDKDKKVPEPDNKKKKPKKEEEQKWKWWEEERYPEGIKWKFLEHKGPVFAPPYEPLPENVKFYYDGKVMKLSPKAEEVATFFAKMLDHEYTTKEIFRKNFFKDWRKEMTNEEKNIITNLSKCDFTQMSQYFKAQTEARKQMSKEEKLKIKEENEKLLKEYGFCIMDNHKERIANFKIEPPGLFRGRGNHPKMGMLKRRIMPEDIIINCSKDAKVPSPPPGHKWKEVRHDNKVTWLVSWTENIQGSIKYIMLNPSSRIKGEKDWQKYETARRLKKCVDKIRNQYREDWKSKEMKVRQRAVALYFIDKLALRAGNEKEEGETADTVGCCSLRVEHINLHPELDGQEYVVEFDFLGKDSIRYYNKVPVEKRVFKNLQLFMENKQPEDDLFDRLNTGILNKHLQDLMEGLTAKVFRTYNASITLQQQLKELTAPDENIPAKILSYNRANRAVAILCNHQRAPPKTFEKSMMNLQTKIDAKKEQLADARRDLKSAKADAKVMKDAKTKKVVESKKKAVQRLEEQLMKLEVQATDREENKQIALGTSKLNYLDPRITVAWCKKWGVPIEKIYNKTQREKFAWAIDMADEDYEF
Put plainly: Concentration required to inhibit 50% relaxation of 250 ng of SV40 DNA obtained with 0.5 I.U topoisomerase I at 37 degrees C for 30 min.
Settings: not given
On to `CC[C@@]1(O)C(=O)OCc2c1cc1n(c2=O)Cc2cc3cc(/C=C/C(=O)OC)ccc3nc2-1`, for which the pIC50 is less than 4.00.

For `CC[C@@]1(O)C(=O)OCc2c1cc1n(c2=O)Cc2cc3c(CC(NC(C)=O)C(=O)OC)cccc3nc2-1` (some centres undefined), the pIC50 was 4.95.

In turn, `CC[C@@]1(O)C(=O)OCc2c1cc1n(c2=O)Cc2cc3c(/C=C(\NC(C)=O)C(=O)OC)cccc3nc2-1` gave a pIC50 of 4.50.

`CC[C@@]1(O)C(=O)OCc2c1cc1n(c2=O)Cc2cc3c(CCc4ccccc4)cccc3nc2-1` showed a pIC50 of less than 4.00.

`C=Cc1cccc2nc3c(cc12)Cn1c-3cc2c(c1=O)COC(=O)[C@]2(O)CC`: the pIC50 is 5.38.

Regarding `CC[C@@]1(O)C(=O)OCc2c1cc1n(c2=O)Cc2cc3c(CCC(=O)OC)cccc3nc2-1`, the negative logarithm of the IC50 (pIC50) was 4.38. This pIC50 is 1.00 log units lower than that of the compound before.

The compound `CC[C@@]1(O)C(=O)OCc2c1cc1n(c2=O)Cc2cc3c(/C=C/c4ccccc4)cccc3nc2-1` showed a pIC50 of less than 4.00.

Consider `CC[C@@]1(O)C(=O)OCc2c1cc1n(c2=O)Cc2cc3c(/C=C/C(=O)OC)cccc3nc2-1`, for which the pIC50 is 5.17.

For the compound `CC[C@@]1(O)C(=O)OCc2c1cc1n(c2=O)Cc2cc3c(/C=C/C(N)=O)cccc3nc2-1`, the pIC50 was 5.49.

Consider `CC[C@@]1(O)C(=O)OCc2c1cc1n(c2=O)Cc2cc3c(N)cccc3nc2-1` [9-AMINOCAMPTOTHECIN], for which the pIC50 was 5.74.

Another test deals with L1210. Put plainly: Concentration required to inhibit 50% of cell growth in L1210 murine leukemia cell line after 48 hr continuous treatment. It counts as functional, cell-based. The note with it: Mus musculus, L1210, 48 h.
In turn, `CC[C@@]1(O)C(=O)OCc2c1cc1n(c2=O)Cc2cc3cc(/C=C/C(=O)OC)ccc3nc2-1` had a pIC50 of 7.21.

For the compound `CC[C@@]1(O)C(=O)OCc2c1cc1n(c2=O)Cc2cc3c(CC(NC(C)=O)C(=O)OC)cccc3nc2-1` (some centres undefined), the pIC50 was 6.74. This pIC50 lies 0.47 log units lower than the previous one.

For `CC[C@@]1(O)C(=O)OCc2c1cc1n(c2=O)Cc2cc3c(/C=C(\NC(C)=O)C(=O)OC)cccc3nc2-1`, the pIC50 is 5.93.

`CC[C@@]1(O)C(=O)OCc2c1cc1n(c2=O)Cc2cc3c(CCc4ccccc4)cccc3nc2-1` gave a negative-log IC50 (pIC50) of 7.79.

The compound `C=Cc1cccc2nc3c(cc12)Cn1c-3cc2c(c1=O)COC(=O)[C@]2(O)CC` showed a pIC50 of 8.12.

`CC[C@@]1(O)C(=O)OCc2c1cc1n(c2=O)Cc2cc3c(CCC(=O)OC)cccc3nc2-1` gave a pIC50 of 8.21. This pIC50 and that of the compound before are within 0.2 log units of each other.

Take `CC[C@@]1(O)C(=O)OCc2c1cc1n(c2=O)Cc2cc3c(/C=C/c4ccccc4)cccc3nc2-1`: the pIC50 was 7.80.

Compound `CC[C@@]1(O)C(=O)OCc2c1cc1n(c2=O)Cc2cc3c(/C=C/C(=O)OC)cccc3nc2-1` gave a pIC50 of 8.12.

As to `CC[C@@]1(O)C(=O)OCc2c1cc1n(c2=O)Cc2cc3c(/C=C/C(N)=O)cccc3nc2-1`, the pIC50 was 6.92.
